These results are taken from US9079152B2, “Encapsulated essential oils” (BEN GURION UNIVERSITY OF THE NEGEV RESEARCH AND DEVELOPMENT …, priority 2004, dated 2015).

For this data set, the system named is mosquito larvae. Nature of the data set: Comparison tests of cyromazine for larvicidal activity. The format is in vivo. The following applies: 0.5 g/m^2 of cyromazine; after 3 days. How it is done:
Tests with cyromazine, an insect growth regulator produced by Novartis, was tested for larvicidal activity, either as such or in encapsulated form An effective concentration of 0.5 g/m^2 of cyromazine gave 60% mortality after 3 days, and the best sustained-release formulation gave. 100% mortality after 8 days.

The mortality is the share of the test organisms that died. The low end stands for a weak lethal effect, the high end for a strong lethal effect. `Nc1nc(N)nc(NC2CC2)n1` [cyromazine] displayed a mortality of 60%.
